Test results: patent US12227495B2, “Herbicidal compounds” (SYNGENTA CROP PROTECTION AG, priority 2018, dated 2025)

Legend:
Assay type in all cases: in vivo
Conditions in all cases: evaluated after 13 days
[1] = system: Echinochloa crus-galli (ECHCG); test: Post-emergence herbicide test, glasshouse, percentage damage
Experimental: (§1) Seeds of a variety of test species are sown in standard soil in pots (Lolium perenne (LOLPE), Solanum nigrum (SOLNI), Amaranthus retoflexus (AMARE), Setaria faberi (SETFA), Echinochloa crus-galli (ECHCG), Ipomoea hederacea (IPOHE)). After cultivation for one day (pre-emergence) or after 8 days cultivation (post-emergence) under controlled conditions in a glasshouse (at 24/16° C., day/night; 14 hours light; 65% humidity), the plants are sprayed with an aqueous spray solution derived from the formulation of the technical active ingredient in acetone/water (50:50) solution containing 0.5% Tween 20 (polyoxyethelyene sorbitan monolaurate, CAS RN 9005-64-5). Compounds are applied at 500 g/ha unless otherwise stated. The test plants are then grown in a glasshouse under controlled conditions in a glasshouse (at 24/16° C., day/night; 14 hours light; 65% humidity) and watered twice daily. After 13 days for pre and post-emergence, the test is evaluated for the percentage damage caused to the plant. The biological activities are shown in the following table on a five point scale (5=81-100%; 4=61-80%; 3=41-60%; 2=21-40%; 1=0-20%).

Lolium perenne (LOLPE) [2] = test: as above
Experimental: as §1

[3] = system: Amaranthus retoflexus (AMARE); test: as above
Experimental: as §1

[4] = system: Ipomoea hederacea (IPOHE); test: as above
Experimental: as §1

Solanum nigrum (SOLNI) [5] = test: as above
Experimental: as §1

Setaria faberi (SETFA) [6] = test: as above
Experimental: as §1

[7] = system: Echinochloa crus-galli (ECHCG); test: Pre-emergence herbicide test, glasshouse, percentage damage
Experimental: as §1

Lolium perenne (LOLPE) [8] = test: as above
Experimental: as §1

[9] = system: Amaranthus retoflexus (AMARE); test: as above
Experimental: as §1

[10] = system: Ipomoea hederacea (IPOHE); test: as above
Experimental: as §1

Solanum nigrum (SOLNI) [11] = test: as above
Experimental: as §1

Setaria faberi (SETFA) [12] = test: as above
Experimental: as §1

Structure (SMILES)	percentage damage caused to the plant, ECHCG ([1]; 1000 g/ha)	percentage damage caused to the plant, LOLPE (Lolium perenne (LOLPE) [2]; 1000 g/ha)	percentage damage caused to the plant, AMARE ([3]; 1000 g/ha)	percentage damage caused to the plant, IPOHE ([4]; 1000 g/ha)	percentage damage caused to the plant, SOLNI (Solanum nigrum (SOLNI) [5]; 1000 g/ha)	percentage damage caused to the plant, SETFA (Setaria faberi (SETFA) [6]; 1000 g/ha)	Pre-emergence Test ECHCG percentage damage (five point scale) ([7]; rate 1000 g/ha)	Pre-emergence Test LOLPE percentage damage (five point scale) (Lolium perenne (LOLPE) [8]; rate 1000 g/ha)	Pre-emergence Test AMARE percentage damage (five point scale) ([9]; rate 1000 g/ha)	Pre-emergence Test SOLNI percentage damage (five point scale) (Solanum nigrum (SOLNI) [11]; rate 1000 g/ha)	Pre-emergence Test SETFA percentage damage (five point scale) (Setaria faberi (SETFA) [12]; rate 1000 g/ha)	percentage damage caused to the plant, ECHCG ([1]; 250 g/ha)	percentage damage caused to the plant, AMARE ([3]; 250 g/ha)	percentage damage caused to the plant, IPOHE ([4]; 250 g/ha)	percentage damage caused to the plant, SETFA (Setaria faberi (SETFA) [6]; 250 g/ha)	Pre-emergence Test ECHCG percentage damage (five point scale) ([7]; rate 250 g/ha)	Pre-emergence Test AMARE percentage damage (five point scale) ([9]; rate 250 g/ha)	Pre-emergence Test IPOHE percentage damage (five point scale) ([10]; rate 250 g/ha)	Pre-emergence Test SETFA percentage damage (five point scale) (Setaria faberi (SETFA) [12]; rate 250 g/ha)	other results
Fc1cc(Cl)cnc1Oc1cccc(Br)c1-n1cc(C(F)(F)F)cn1 [Compound A59]	3 (3=41-60%)	4 (4=61-80%)	5 (5=81-100%)	5 (5=81-100%)	5 (5=81-100%)	5 (5=81-100%)	2 (2=21-40%)	4 (4=61-80%)	5 (5=81-100%)	5 (5=81-100%)	5 (5=81-100%)	–	–	–	–	–	–	–	–	Pre-emergence Test IPOHE percentage damage (five point scale) ([10]; rate 1000 g/ha): 2 (2=21-40%)
Fc1cccc(Oc2ncc(Cl)cc2Cl)c1-c1cc(C(F)F)no1 [Compound A4]	–	–	–	–	–	–	–	–	–	–	–	–	–	–	–	–	–	–	–	percentage damage caused to the plant, ECHCG ([1]; 500 g/ha): 1 (1=0-20%); percentage damage caused to the plant, LOLPE (Lolium perenne (LOLPE) [2]; 500 g/ha): 1 (1=0-20%); percentage damage caused to the plant, AMARE ([3]; 500 g/ha): 5 (5=81-100%); percentage damage caused to the plant, IPOHE ([4]; 500 g/ha): 1 (1=0-20%); percentage damage caused to the plant, SOLNI (Solanum nigrum (SOLNI) [5]; 500 g/ha): 5 (5=81-100%); percentage damage caused to the plant, SETFA (Setaria faberi (SETFA) [6]; 500 g/ha): 3 (3=41-60%); Pre-emergence Test ECHCG percentage damage (five point scale) ([7]; rate 500 g/ha): 2 (2=21-40%); Pre-emergence Test LOLPE percentage damage (five point scale) (Lolium perenne (LOLPE) [8]; rate 500 g/ha): 1 (1=0-20%); Pre-emergence Test AMARE percentage damage (five point scale) ([9]; rate 500 g/ha): 3 (3=41-60%); Pre-emergence Test IPOHE percentage damage (five point scale) ([10]; rate 500 g/ha): 1 (1=0-20%); Pre-emergence Test SOLNI percentage damage (five point scale) (Solanum nigrum (SOLNI) [11]; rate 500 g/ha): 3 (3=41-60%); Pre-emergence Test SETFA percentage damage (five point scale) (Setaria faberi (SETFA) [12]; rate 500 g/ha): 2 (2=21-40%)
Fc1cc(Cl)cnc1Oc1cccc(F)c1-c1cc(C(F)(F)F)on1 [Compound A25, 3-[2-[(5-chloro-3-fluoro-2-pyridyl)oxy]-6-fluoro-phenyl]-5-(trifluoromethyl)isoxazole]	4 (4=61-80%)	5 (5=81-100%)	5 (5=81-100%)	4 (4=61-80%)	5 (5=81-100%)	5 (5=81-100%)	5 (5=81-100%)	5 (5=81-100%)	5 (5=81-100%)	5 (5=81-100%)	5 (5=81-100%)	–	–	–	–	–	–	–	–	Pre-emergence Test IPOHE percentage damage (five point scale) ([10]; rate 1000 g/ha): 5 (5=81-100%)
Fc1cccc(Oc2cccc(OC(F)F)n2)c1-c1cc(C(F)F)no1 [Compound A48]	1 (1=0-20%)	1 (1=0-20%)	5 (5=81-100%)	2 (2=21-40%)	5 (5=81-100%)	2 (2=21-40%)	1 (1=0-20%)	1 (1=0-20%)	1 (1=0-20%)	1 (1=0-20%)	1 (1=0-20%)	–	–	–	–	–	–	–	–	Pre-emergence Test IPOHE percentage damage (five point scale) ([10]; rate 1000 g/ha): 1 (1=0-20%)
Cc1ccc(C#N)nc1Oc1cccc(F)c1-c1cc(C(F)F)no1 [Compound A76]	–	–	–	–	–	–	–	–	–	–	–	1 (1=0-20%)	2 (2=21-40%)	3 (3=41-60%)	1 (1=0-20%)	–	–	–	–	percentage damage caused to the plant, LOLPE (Lolium perenne (LOLPE) [2]; 250 g/ha): 1 (1=0-20%); percentage damage caused to the plant, SOLNI (Solanum nigrum (SOLNI) [5]; 250 g/ha): 4 (4=61-80%)
Cc1noc(-c2ccccc2Oc2ncc(Cl)cc2F)n1 [Compound A126]	–	–	–	–	–	–	–	–	–	–	–	–	–	–	–	4 (4=61-80%)	5 (5=81-100%)	1 (1=0-20%)	3 (3=41-60%)	–
Fc1cc(Cl)cnc1Oc1cccc(I)c1-n1cc(C(F)(F)F)cn1 [Compound A57, 5-chloro-3-fluoro-2-[3-iodo-2-[4-(trifluoromethyl)pyrazol-1-yl]phenoxy]pyridine]	1 (1=0-20%)	1 (1=0-20%)	5 (5=81-100%)	2 (2=21-40%)	5 (5=81-100%)	4 (4=61-80%)	1 (1=0-20%)	1 (1=0-20%)	5 (5=81-100%)	4 (4=61-80%)	5 (5=81-100%)	–	–	–	–	–	–	–	–	–
Fc1cc(Cl)cnc1Oc1ccccc1-c1ccc(Cl)s1 [Compound A66, 5-chloro-2-[2-(5-chloro-2-thienyl)phenoxy]-3-fluoro-pyridine]	3 (3=41-60%)	1 (1=0-20%)	5 (5=81-100%)	2 (2=21-40%)	5 (5=81-100%)	2 (2=21-40%)	–	–	–	–	–	–	–	–	–	–	–	–	–	–
Fc1cc(Cl)cnc1Oc1ccccc1-c1cc(C(F)F)on1 [Compound A163]	–	–	–	–	–	–	–	–	–	–	–	5 (5=81-100%)	5 (5=81-100%)	3 (3=41-60%)	5 (5=81-100%)	4 (4=61-80%)	5 (5=81-100%)	1 (1=0-20%)	5 (5=81-100%)	–
Fc1cc(Cl)cnc1Oc1ccccc1-n1cc(C(F)F)nn1 [Compound A169]	–	–	–	–	–	–	–	–	–	–	–	5 (5=81-100%)	5 (5=81-100%)	5 (5=81-100%)	5 (5=81-100%)	5 (5=81-100%)	5 (5=81-100%)	5 (5=81-100%)	5 (5=81-100%)	–
FC(F)c1cc(-c2c(Br)cccc2Oc2ccc(Cl)cn2)on1 [Compound A100]	–	–	–	–	–	–	–	–	–	–	–	5 (5=81-100%)	5 (5=81-100%)	2 (2=21-40%)	5 (5=81-100%)	2 (2=21-40%)	5 (5=81-100%)	1 (1=0-20%)	5 (5=81-100%)	–
